# Measured values published in PubChem BioAssay AID1963843 (Molecular Pharmacology Branch, DTP, NCI, 2024).
# Test system: 616215-338-R-J1-PDC complex spheroid viability
# Experiment: Anticancer human tumor 616215-338-R-J1-PDC patient-derived colon adenocarcinoma cell line growth inhibition [POLQ]
# Details: for IC50: curve of first compound; for viability, T/C: stronger effect = lower value
# In short: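 Patient-derived tumour cells were co-cultured with HUVEC and mesenchymal stem cells as multicellular spheroids at 37 °C. They were treated with POLQ inhibitors (novobiocin, ART-558, RP6685) alone or combined with other agents. Top concentrations were at or near clinical Cmax (otherwise 10 microM; SN-38 at 1 microM), decreasing in half-log steps.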
# [1] = second compound 0.0316 µM, first compound 0.0316 µM
# [2] = second compound 0.0316 µM, first compound 0.1 µM
# [3] = second compound 0.0316 µM, first compound 0.316 µM
# [4] = second compound 0.0316 µM, first compound 1 µM
# [5] = second compound 0.0316 µM, first compound 3.16 µM
# [6] = second compound 0.0316 µM, first compound 10 µM
# [7] = second compound 0.1 µM, first compound 0.0316 µM
# [8] = second compound 0.1 µM, first compound 0.1 µM
# [9] = second compound 0.1 µM, first compound 0.316 µM
# [10] = second compound 0.1 µM, first compound 1 µM
# [11] = second compound 0.1 µM, first compound 3.16 µM
# [12] = second compound 0.1 µM, first compound 10 µM
# [13] = second compound 0.316 µM, first compound 0.0316 µM
# [14] = second compound 0.316 µM, first compound 0.1 µM
# [15] = second compound 0.316 µM, first compound 0.316 µM
# [16] = second compound 0.316 µM, first compound 1 µM
# [17] = second compound 0.316 µM, first compound 3.16 µM
# [18] = second compound 0.316 µM, first compound 10 µM
# [19] = second compound 1 µM, first compound 0.0316 µM
# [20] = second compound 1 µM, first compound 0.1 µM
# [21] = second compound 1 µM, first compound 0.316 µM
# [22] = second compound 1 µM, first compound 1 µM
# [23] = second compound 1 µM, first compound 3.16 µM
# [24] = second compound 1 µM, first compound 10 µM
# [25] = second compound 3.16 µM, first compound 0.0316 µM
# [26] = second compound 3.16 µM, first compound 0.1 µM
# [27] = second compound 3.16 µM, first compound 0.316 µM
# [28] = second compound 3.16 µM, first compound 1 µM
# [29] = second compound 3.16 µM, first compound 3.16 µM
# [30] = second compound 3.16 µM, first compound 10 µM
# [31] = second compound 10 µM, first compound 0.0316 µM
# [32] = second compound 10 µM, first compound 0.1 µM
# [33] = second compound 10 µM, first compound 0.316 µM
# [34] = second compound 10 µM, first compound 1 µM
# [35] = second compound 10 µM, first compound 3.16 µM
# [36] = second compound 10 µM, first compound 10 µM
# 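Note: spheroids exposed to compounds for one week before readout.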
# 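Throughout, for viability, T/C: percent viability relative to DMSO vehicle wells taken as 100%.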
smiles,measurement,setting,value
O=C(Nc1ccc(O)c(NS(=O)(=O)c2ccc(F)cc2)c1)c1ccc(-c2ccccc2)cc1 + Nc1ccc(C#CCN(C(=O)Cc2ncc(C(F)(F)F)cc2C(F)(F)F)c2ccc(F)cc2)nn1,IC50,second compound 0.0316 µM,9.93 µM
same,IC50,second compound 0.1 µM,> 10 µM
same,IC50,second compound 0.316 µM,> 10 µM
same,IC50,second compound 1 µM,> 10 µM
same,IC50,second compound 3.16 µM,> 10 µM
same,IC50,second compound 10 µM,6.56 µM
same,"viability, T/C",[1],108%
same,"viability, T/C",[2],105%
same,"viability, T/C",[3],105%
same,"viability, T/C",[4],104%
same,"viability, T/C",[5],119%
same,"viability, T/C",[6],49.7%
same,"viability, T/C",[7],108%
same,"viability, T/C",[8],105%
same,"viability, T/C",[9],114%
same,"viability, T/C",[10],105%
same,"viability, T/C",[11],100%
same,"viability, T/C",[12],56%
same,"viability, T/C",[13],108%
same,"viability, T/C",[14],107%
same,"viability, T/C",[15],103%
same,"viability, T/C",[16],104%
same,"viability, T/C",[17],96.6%
same,"viability, T/C",[18],72.6%
same,"viability, T/C",[19],105%
same,"viability, T/C",[20],106%
same,"viability, T/C",[21],106%
same,"viability, T/C",[22],101%
same,"viability, T/C",[23],91.2%
same,"viability, T/C",[24],54%
same,"viability, T/C",[25],106%
same,"viability, T/C",[26],103%
same,"viability, T/C",[27],102%
same,"viability, T/C",[28],102%
same,"viability, T/C",[29],76.5%
same,"viability, T/C",[30],50.7%
same,"viability, T/C",[31],93.9%
same,"viability, T/C",[32],84.2%
same,"viability, T/C",[33],93.2%
same,"viability, T/C",[34],105%
same,"viability, T/C",[35],85.8%
same,"viability, T/C",[36],29.3%
C#Cc1c(F)ccc2cc(O)cc(-c3ncc4c(N5CC6CCC(C5)N6)nc(OCC56CCCN5CC(F)C6)nc4c3F)c12 (stereo unspecified) + Nc1ccc(C#CCN(C(=O)Cc2ncc(C(F)(F)F)cc2C(F)(F)F)c2ccc(F)cc2)nn1,IC50,second compound 0.0316 µM,7.31 µM
same,IC50,second compound 0.1 µM,4.11 µM
same,IC50,second compound 0.316 µM,3.43 µM
same,IC50,second compound 1 µM,6.65 µM
same,IC50,second compound 3.16 µM,6.47 µM
same,IC50,second compound 10 µM,2.49 µM
same,"viability, T/C",[1],105%
same,"viability, T/C",[2],96.2%
same,"viability, T/C",[3],98.5%
same,"viability, T/C",[4],88.6%
same,"viability, T/C",[5],62.5%
same,"viability, T/C",[6],45.3%
same,"viability, T/C",[7],97.1%
same,"viability, T/C",[8],95.9%
same,"viability, T/C",[9],90.4%
same,"viability, T/C",[10],75.3%
same,"viability, T/C",[11],56.9%
same,"viability, T/C",[12],29.2%
same,"viability, T/C",[13],111%
same,"viability, T/C",[14],112%
same,"viability, T/C",[15],75.2%
same,"viability, T/C",[16],63.3%
same,"viability, T/C",[17],58.6%
same,"viability, T/C",[18],39%
same,"viability, T/C",[19],103%
same,"viability, T/C",[20],96.2%
same,"viability, T/C",[21],91.3%
same,"viability, T/C",[22],81.9%
same,"viability, T/C",[23],53.7%
same,"viability, T/C",[24],47.9%
same,"viability, T/C",[25],84.7%
same,"viability, T/C",[26],89.2%
same,"viability, T/C",[27],99.5%
same,"viability, T/C",[28],68.8%
same,"viability, T/C",[29],68.1%
same,"viability, T/C",[30],40.7%
same,"viability, T/C",[31],92.9%
same,"viability, T/C",[32],86.2%
same,"viability, T/C",[33],74.6%
same,"viability, T/C",[34],57.1%
same,"viability, T/C",[35],50.6%
same,"viability, T/C",[36],33.7%
CC1COCCN1c1cc(C2(O)CC3CCC(C2)O3)c2cnn(-c3ccn[nH]3)c2n1 (stereo unspecified) + Cc1cccc(N(C)C(=O)C2C(O)CCN2c2nc(C)cc(C(F)(F)F)c2C#N)c1,IC50,second compound 0.0316 µM,3.91 µM
same,IC50,second compound 0.1 µM,2.95 µM
same,IC50,second compound 0.316 µM,2.75 µM
same,IC50,second compound 1 µM,3.78 µM
same,IC50,second compound 3.16 µM,4.3 µM
same,IC50,second compound 10 µM,1.4 µM
same,"viability, T/C",[1],98.1%
same,"viability, T/C",[2],102%
same,"viability, T/C",[3],76.6%
same,"viability, T/C",[4],65.3%
same,"viability, T/C",[5],56.2%
same,"viability, T/C",[6],38.9%
same,"viability, T/C",[7],101%
same,"viability, T/C",[8],99.1%
same,"viability, T/C",[9],76.2%
same,"viability, T/C",[10],71.7%
same,"viability, T/C",[11],46.5%
same,"viability, T/C",[12],33.6%
same,"viability, T/C",[13],106%
same,"viability, T/C",[14],103%
same,"viability, T/C",[15],74.9%
same,"viability, T/C",[16],61.4%
same,"viability, T/C",[17],53.5%
same,"viability, T/C",[18],33.6%
same,"viability, T/C",[19],105%
same,"viability, T/C",[20],94.7%
same,"viability, T/C",[21],74.2%
same,"viability, T/C",[22],70%
same,"viability, T/C",[23],57.9%
same,"viability, T/C",[24],33%
same,"viability, T/C",[25],106%
same,"viability, T/C",[26],92%
same,"viability, T/C",[27],71.1%
same,"viability, T/C",[28],71.8%
same,"viability, T/C",[29],58.1%
same,"viability, T/C",[30],36.6%
same,"viability, T/C",[31],105%
same,"viability, T/C",[32],94.6%
same,"viability, T/C",[33],68.8%
same,"viability, T/C",[34],53.4%
same,"viability, T/C",[35],44%
same,"viability, T/C",[36],30.8%
